Where two headings read alike, the source gives them in different places. Some results are limits rather than exact numbers.

Assay type in all cases: biochemical
Experiment [1] addresses T1, JAK1 (aa 850-1154, catalytic domain, GST-tag) (Homo sapiens, UniProt P23458).
T1 construct: JAK1 (aa 850-1154) and TYK2 (aa 871-1187) are expressed with an N-terminally fused GST-tag; GST (N); purchased Carna Biosciences, Inc; host or cells: baculovirus expression system
In words: JAK kinase assay (HTRF, phosphorylation of TK substrate-biotin), JAK1. To be noted: ATP at Km (7 μM). The method in brief:
(§1)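 EC50 values come from HTRF detection of phospho-biotin-TK peptide (1 μM) after 20-30 min RT reactions in Hepes pH 7.0 buffer with 0.75% DMSO. ATP was at Km for each enzyme: 7 μM JAK1, 4 μM JAK2, 2 μM JAK3, 13 μM TYK2. SEB (50 nM) was added for JAK1 and TYK2 only.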

Experiment [2] concerns the target T2, JAK2 (catalytic domain, His-tag) (Homo sapiens, UniProt O60674).
T2 construct: All four purified enzymes contain only the catalytic domain; His (N); purchased Carna Biosciences, Inc; host or cells: baculovirus expression system
In words: JAK kinase assay (HTRF, phosphorylation of TK substrate-biotin), JAK2. To be noted: ATP at Km (4 μM). In outline:
as §1

Experiment [3] addresses T3, JAK3 (catalytic domain, His-tag) (Homo sapiens, UniProt P52333).
T3 construct: All four purified enzymes contain only the catalytic domain; His (N); purchased Carna Biosciences, Inc; host or cells: baculovirus expression system
In words: JAK kinase assay (HTRF, phosphorylation of TK substrate-biotin), JAK3. The following applies: ATP at Km (2 μM). In outline:
as §1

Experiment [4] has as its target T4, TYK2 (aa 871-1187, catalytic domain, GST-tag) (Homo sapiens, UniProt P29597).
T4 construct: JAK1 (aa 850-1154) and TYK2 (aa 871-1187) are expressed with an N-terminally fused GST-tag; GST (N); purchased Carna Biosciences, Inc; host or cells: baculovirus expression system
T4 sequence (P29597 871-1187): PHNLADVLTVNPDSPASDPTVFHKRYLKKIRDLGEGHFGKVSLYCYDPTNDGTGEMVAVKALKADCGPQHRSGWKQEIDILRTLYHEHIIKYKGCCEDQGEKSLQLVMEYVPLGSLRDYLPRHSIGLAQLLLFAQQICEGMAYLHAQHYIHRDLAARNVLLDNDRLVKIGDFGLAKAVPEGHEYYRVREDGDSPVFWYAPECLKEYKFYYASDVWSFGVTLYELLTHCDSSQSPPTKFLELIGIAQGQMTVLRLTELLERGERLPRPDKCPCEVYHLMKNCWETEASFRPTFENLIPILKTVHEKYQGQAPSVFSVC
In words: JAK kinase assay (HTRF, phosphorylation of TK substrate-biotin), TYK2. To be noted: ATP at Km (13 μM). In outline:
as §1

Where [5] appears, read: read-out: JAK1 kinase inhibitory activity (EC50 indicator).
Setting [6] is: read-out: JAK2 kinase inhibitory activity (EC50 indicator).
Setting [7] is: read-out: JAK3 kinase inhibitory activity (EC50 indicator).
Setting [8] is: read-out: TYK2 kinase inhibitory activity (EC50 indicator).
Where [9] appears, read: HTRF assay, read-out: JAK1 kinase inhibitory activity (EC50 indicator).
[10] abbreviates: HTRF assay, read-out: JAK2 kinase inhibitory activity (EC50 indicator).
Setting [11] is: HTRF assay, read-out: JAK3 kinase inhibitory activity (EC50 indicator).
The mark [12] stands for this setting: HTRF assay, read-out: TYK2 kinase inhibitory activity (EC50 indicator).

T3 sequence (P52333 822-1111 limits assumed): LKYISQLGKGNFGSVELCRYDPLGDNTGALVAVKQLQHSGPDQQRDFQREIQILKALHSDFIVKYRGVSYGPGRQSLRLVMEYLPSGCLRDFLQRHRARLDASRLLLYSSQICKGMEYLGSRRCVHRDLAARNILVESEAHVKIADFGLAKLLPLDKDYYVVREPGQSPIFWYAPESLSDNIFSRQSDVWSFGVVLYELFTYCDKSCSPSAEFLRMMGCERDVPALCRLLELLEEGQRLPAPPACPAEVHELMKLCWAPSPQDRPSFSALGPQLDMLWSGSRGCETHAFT
T2 sequence (O60674 849-1124 limits assumed): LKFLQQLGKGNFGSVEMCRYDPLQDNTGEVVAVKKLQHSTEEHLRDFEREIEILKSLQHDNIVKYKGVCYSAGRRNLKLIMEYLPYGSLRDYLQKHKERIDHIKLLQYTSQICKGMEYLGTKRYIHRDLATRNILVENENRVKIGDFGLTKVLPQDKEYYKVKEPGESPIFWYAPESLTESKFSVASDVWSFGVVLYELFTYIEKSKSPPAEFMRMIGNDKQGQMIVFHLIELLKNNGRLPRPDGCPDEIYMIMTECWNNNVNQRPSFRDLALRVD
T1 sequence (P23458 850-1154): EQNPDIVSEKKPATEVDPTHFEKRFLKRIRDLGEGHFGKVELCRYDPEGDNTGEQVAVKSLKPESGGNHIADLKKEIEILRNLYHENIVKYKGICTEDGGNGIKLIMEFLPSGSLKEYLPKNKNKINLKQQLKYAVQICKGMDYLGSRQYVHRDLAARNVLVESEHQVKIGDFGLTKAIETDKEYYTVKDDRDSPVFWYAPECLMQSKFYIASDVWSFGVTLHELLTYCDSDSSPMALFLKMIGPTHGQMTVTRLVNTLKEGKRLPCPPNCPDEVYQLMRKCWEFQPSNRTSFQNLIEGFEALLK

On to `N#Cc1ccc(CC(=O)N2CCN(c3ncnc4[nH]ccc34)CC23CC3)cc1` [Example 35, 4-{2-Oxo-2-[7-(7H-pyrrolo[2,3-d]pyrimidin-4-yl)-4,7-diazaspiro[2.5]oct-4-yl]-ethyl}benzonitrile], for which the EC50 in experiment [1] (setting [5]), in experiment [2] (setting [6]), in experiment [3] (setting [7]) and in experiment [4] (setting [8]) was under 100 nM each time.
In the case of `Cc1c(C(=O)N2C3CCC2CN(c2ncnc4[nH]ccc24)C3)[nH]c2ccc(F)cc12` [Example 201, (5-Fluoro-3-methyl-1H-indol-2-yl)-[3-(7H-pyrrolo[2,3-d]pyrimidin-4-yl)-3,8-diaza-bicyclo[3.2.1]oct-8-yl]-methanone], the EC50 is under 100 nM in experiment [1] (setting [5]), 100 to 500 nM in experiment [2] (setting [6]), 100 to 500 nM in experiment [3] (setting [7]) and over 500 nM in experiment [4] (setting [8]).
For `Cn1c(C(=O)N2CCN(c3ncnc4[nH]ccc34)CC23CC3)ccc1S(N)(=O)=O` [Example 187, 1-Methyl-5-[7-(7H-pyrrolo[2,3-d]pyrimidin-4-yl)-4,7-diaza-spiro[2.5]octane-4-carbonyl]-1H-pyrrole-2-sulfonic acid amide], the EC50 in experiment [1] (setting [5]), in experiment [2] (setting [6]), in experiment [3] (setting [7]) and in experiment [4] (setting [8]) was under 100 nM throughout.
For the molecule `Cc1c[nH]c2ncnc(N3CCN(C(=O)c4cnccn4)C4(CC4)C3)c12` [Example 326, [7-(5-Methyl-7H-pyrrolo[2,3-d]pyrimidin-4-yl)-4,7-diaza-spiro[2.5]oct-4-yl]-pyrazin-2-yl-methanone], the EC50 in experiment [1] (setting [9]), in experiment [2] (setting [10]), in experiment [3] (setting [11]) and in experiment [4] (setting [12]) was over 500 nM each time.
Regarding `O=C(c1c[nH]c2ccccc12)N1CCN(c2ncnc3[nH]ccc23)CC12CC2` [Example 16, (1H-Indol-3-yl)-[7-(7H-pyrrolo[2,3-d]pyrimidin-4-yl)-4,7-diazaspiro[2.5]oct-4-yl]methanone], the EC50 was under 100 nM in experiment [1] (setting [5]), under 100 nM in experiment [2] (setting [6]), under 100 nM in experiment [3] (setting [7]) and 100 to 500 nM in experiment [4] (setting [8]).
As to `N#Cc1ccc(C(=O)N2CCN(c3ncnc4[nH]cc(Cl)c34)CC23CC3)cc1` [Example 315, 4-[7-(5-Chloro-7H-pyrrolo[2,3-d]pyrimidin-4-yl)-4,7-diaza-spiro[2.5]octane-4-carbonyl]-benzonitrile], the EC50 in experiment [1] (setting [9]), in experiment [2] (setting [10]), in experiment [3] (setting [11]) and in experiment [4] (setting [12]) was over 500 nM each time.
For the molecule `N#Cc1ccc2c(C(=O)N3CCN(c4ncnc5[nH]ccc45)CC34CC4)n[nH]c2c1` [Example 301, 3-[7-(7H-Pyrrolo[2,3-d]pyrimidin-4-yl)-4,7-diaza-spiro[2.5]octane-4-carbonyl]-1H-indazole-6-carbonitrile], the EC50 is under 100 nM in experiment [1] (setting [9]), under 100 nM in experiment [2] (setting [10]), under 100 nM in experiment [3] (setting [11]) and 100 to 500 nM in experiment [4] (setting [12]).
For `N#Cc1ccc(C(F)(F)C(=O)N2CCN(c3ncnc4[nH]ccc34)CC23CC3)cc1` [Example 64, 4-{1,1-Difluoro-2-oxo-2-[7-(7H-pyrrolo[2,3-d]pyrimidin-4-yl)-4,7-diaza-spiro[2.5]oct-4-yl]-ethyl}-benzonitrile], the EC50 in experiment [1] (setting [5]) was under 100 nM; in experiment [2] (setting [6]), under 100 nM; in experiment [3] (setting [7]), 100 to 500 nM; in experiment [4] (setting [8]) it was over 500 nM.
For `NS(=O)(=O)c1ccc(NC(=O)C(=O)N2CCN(c3ncnc4[nH]ccc34)CC23CC3)cc1` [Example 401, 2-Oxo-2-[7-(7H-pyrrolo[2,3-d]pyrimidin-4-yl)-4,7-diaza-spiro[2.5]oct-4-yl]-N-(4-sulfamoyl-phenyl)-acetamide], the half-maximal effective concentration (EC50) in experiment [1] (setting [9]), in experiment [2] (setting [10]), in experiment [3] (setting [11]) and in experiment [4] (setting [12]) was under 100 nM in each case.
As to `COCC(=O)N1CCN(c2ncnc3[nH]ccc23)CC12CC2` [Example 443, 2-Methoxy-1-[7-(7H-pyrrolo[2,3-d]pyrimidin-4-yl)-4,7-diaza-spiro[2.5]oct-4-yl]-ethanone], the EC50 is under 100 nM in experiment [1] (HTRF assay, read-out: JAK1 kinase inhibitory activity (EC50)); under 100 nM in experiment [2] (HTRF assay, read-out: JAK2 kinase inhibitory activity (EC50)); over 500 nM in experiment [3] (HTRF assay, read-out: JAK3 kinase inhibitory activity (EC50)); over 500 nM in experiment [4] (HTRF assay, read-out: TYK2 kinase inhibitory activity (EC50)).
As to `CC1CN(C(=O)Cc2ccc(C#N)cc2)C2(CC2)CN1c1ncnc2[nH]ccc12` (stereo not shown) [Example 147, 4-{2-[6-Methyl-7-(7H-pyrrolo[2,3-d]pyrimidin-4-yl)-4,7-diaza-spiro[2.5]oct-4-yl]-2-oxo-ethyl}-benzonitrile], the EC50 in experiment [1] (setting [5]), in experiment [2] (setting [6]), in experiment [3] (setting [7]) and in experiment [4] (setting [8]) was under 100 nM in each case.
For the molecule `O=C(Cc1ccc(C(F)(F)F)cc1)N1[C@@H]2CC[C@@H]1CN(c1ncnc3[nH]ccc13)C2` [Example 349, 1-[3-(7H-Pyrrolo[2,3-d]pyrimidin-4-yl)-3,8-diaza-bicyclo[3.2.1]oct-8-yl]-2-(4-trifluoromethyl-phenyl)-ethanone], the EC50 in experiment [1] (setting [9]) was 100 to 500 nM; in experiment [2] (setting [10]), 100 to 500 nM; in experiment [3] (setting [11]), 100 to 500 nM; in experiment [4] (setting [12]), over 500 nM.
`COc1cnc2[nH]ccc2c1N1CCN(C(=O)Cc2ccc(C#N)cc2)C2(CC2)C1` [Example 295, 4-{2-[7-(5-Methoxy-1H-pyrrolo[2,3-b]pyridin-4-yl)-4,7-diaza-spiro[2.5]oct-4-yl]-2-oxo-ethyl}-benzonitrile]: the EC50 in experiment [1] (setting [9]) is 100 to 500 nM; in experiment [2] (setting [10]), under 100 nM; in experiment [3] (setting [11]), under 100 nM; in experiment [4] (setting [12]) it was over 500 nM.
In the case of `O=C(c1ccncc1)N1CCN(c2ncnc3[nH]ccc23)CC12CC2` [Example 3, Pyridin-4-yl-[7-(7H-pyrrolo[2,3-d]pyrimidin-4-yl)-4,7-diazaspiro[2.5]oct-4-yl]-methanone], the EC50 was under 100 nM in experiment [1] (setting [5]), under 100 nM in experiment [2] (setting [6]), 100 to 500 nM in experiment [3] (setting [7]) and 100 to 500 nM in experiment [4] (setting [8]).
Consider `COC(=O)c1cc2c(N3CCN(C(=O)Cc4ccc(C#N)cc4)C4(CC4)C3)ncnc2[nH]1` [Example 124, 4-{4-[2-(4-Cyano-phenyl)-acetyl]-4,7-diaza-spiro[2.5]oct-7-yl}-7H-pyrrolo[2,3-d]pyrimidine-6-carboxylic acid methyl ester], for which the concentration giving a half-maximal response (EC50) in experiment [1] (setting [5]), in experiment [2] (setting [6]), in experiment [3] (setting [7]) and in experiment [4] (setting [8]) was over 500 nM throughout.
For `O=C1OCCC1NC(=S)N1[C@@H]2CC[C@H]1CN(c1ncnc3[nH]ccc13)C2` (stereo partly shown) [Example 47, 3-(7H-Pyrrolo[2,3-d]pyrimidin-4-yl)-3,8-diaza-bicyclo[3.2.1]octane-8-carbothioic acid (2-oxo-tetrahydro-furan-3-yl)-amide], the EC50 was 100 to 500 nM in experiment [1] (setting [5]), 100 to 500 nM in experiment [2] (setting [6]), 100 to 500 nM in experiment [3] (setting [7]) and over 500 nM in experiment [4] (setting [8]).
On to `N#Cc1ccc(CC(=O)N2CCN(c3ccnc4[nH]ccc34)CC23CC3)cc1` [Example 115, 4-{2-Oxo-2-[7-(1H-pyrrolo[2,3-b]pyridin-4-yl)-4,7-diaza-spiro[2.5]oct-4-yl]-ethyl}-benzonitrile], for which the half-maximal effective concentration (EC50) in experiment [1] (setting [5]) was under 100 nM; in experiment [2] (setting [6]), under 100 nM; in experiment [3] (setting [7]), under 100 nM; in experiment [4] (setting [8]) it was over 500 nM.
`O=C(c1cccnc1)N1CCN(c2ccnc3[nH]ccc23)CC12CC2` [Example 223, Pyridin-3-yl-[7-(1H-pyrrolo[2,3-b]pyridin-4-yl)-4,7-diaza-spiro[2.5]oct-4-yl]-methanone]: the EC50 was 100 to 500 nM in experiment [1] (setting [9]), 100 to 500 nM in experiment [2] (setting [10]), over 500 nM in experiment [3] (setting [11]) and over 500 nM in experiment [4] (setting [12]).
For the molecule `CC(C)S(=O)(=O)c1ccc(C(=O)N2CCN(c3ncnc4[nH]ccc34)CC23CC3)cc1` [Example 196, [4-(Propane-2-sulfonyl)-phenyl]-[7-(7H-pyrrolo[2,3-d]pyrimidin-4-yl)-4,7-diaza-spiro[2.5]oct-4-yl]-methanone], the concentration for a half-maximal effect (EC50) in experiment [1] (setting [5]) was under 100 nM; in experiment [2] (setting [6]) it was under 100 nM; in experiment [3] (setting [7]) it was 100 to 500 nM; in experiment [4] (setting [8]) it was over 500 nM.

Values taken from patent US9346809B2 (LEO PHARMA A/S, priority 2009, dated 2016).
